We go through 2 compounds from patent EP4351590B1, “A GLUCOSE-METHOTREXATE CONJUGATE FOR USE IN PREVENTING OR TREATING AUTOIMMUNE DISEASES” (Uniwersytet Medyczny Im. Piastów Slaskich We Wroclawiu, priority 2021, dated 2022).

Like-named read-outs stand apart in the source and are kept apart here.

For data set [1] the following is noted: cited from earlier work.
Another data set relates to unstimulated HaCaT cells. In words: MTT assay, cell viability, non-inflammatory cell model. Format: cell-based. The note with it: 10 µM, incubation 48 hours, unstimulated HaCaT (non-inflammatory human keratinocytes), mean of 3 replicates. The procedure:
SW982 and HaCaT cells were seeded in a 96-well plate at 10 x 10^3 cells per well. The next day, cells were incubated with TNF-a at a dose of 10 ng/ml to induce inflammation. After 24h, cells were treated with MTX or Glu-MTX at 10 µM dose and incubated for 48h. After 48 hours of incubation, the medium was decanted, and 100 µl of a solution of yellow soluble 3-(4,5-dimethyl-2-thiazolyl)-2,5-diphenyl-2H-tetrazolium bromide (MTT) at a concentration of 0.5-1 mg/ml was added. After 4 hours of incubation, the MTT solution was decanted, and 50 µl/well of DMSO was added. After 3 hours, the optical density of the dissolved formazan was analyzed colorimetrically in a BioTek plate reader.
Since living cells reduce MTT to formazan, the optical density (OD) is highest in control (C) wells which accounted for 100% of cell viability. Viability in wells incubated with compound (COMP) was calculated using the formula: X = 100% x OD COMP/OD C [formula]
Figures 1 and 2 show the results of a viability assessment study (IC50) for TNF-α-stimulated SW982 and HaCaT cell lines treated with methotrexate alone or a glucose-methotrexate (Glu-MTX) derivative. […] The test was also performed on an unstimulated HaCaT cell line, which is the counterpart of non-inflammatory human keratinocytes. […] The study used: 10 µM Glu-MTX, 10 µM Methotrexate; incubation 48 hours; MTT analysis. […]
Background: Formazan colour is commonly taken as a measure of viable cells.

For data set [2] the following is noted: cited from earlier work. This is another data set of the same source.

Turning to `CN(Cc1nc2c(N)nc(N)nc2[nH]c1=O)c1ccc(C(=O)N[C@@H](CCC(=O)O)C(=O)O)cc1` [7-OH-MTX], the solubility in water result in data set [1] is recorded as “sparingly soluble in water”.

On to `CN(Cc1cnc2nc(N)nc(N)c2n1)c1ccc(C(=O)N[C@@H](CCC(=O)O)C(=O)O)cc1` [MTX, Methotrexate], for which the “cytotoxicity (cell viability)” value in the data set on unstimulated HaCaT cells is reported as “much greater cytotoxicity”. Further, the results for the bioavailability in data set [2] (at higher doses) and in data set [2] (at low doses) were 10-20% and “almost complete”, respectively. Also, the plasma half-life in data set [2] (elimination from the circulation via the kidneys) was 5 to 8 h.
